Measurements: ChEMBL document CHEMBL5370651, “Integrating Taxonomic and Chemical Diversity of Mangrove-Associated Ascomycetes to Discover or Repurpose Bioactive Natural Products” (J Nat Prod, 2023)
Values after ≈ are worked out from the molar mass of the structure shown.

Legend:
[1] = target: T1, Tyrosine-protein phosphatase non-receptor type 1 (Homo sapiens, UniProt P18031); assay: (§1) Inhibition of human PTP1B (1 to 400 residues) using pNPP as substrate preincubated for 10 mins followed by substrate addition and measured after 20 mins
T1 sequence (P18031 whole entry): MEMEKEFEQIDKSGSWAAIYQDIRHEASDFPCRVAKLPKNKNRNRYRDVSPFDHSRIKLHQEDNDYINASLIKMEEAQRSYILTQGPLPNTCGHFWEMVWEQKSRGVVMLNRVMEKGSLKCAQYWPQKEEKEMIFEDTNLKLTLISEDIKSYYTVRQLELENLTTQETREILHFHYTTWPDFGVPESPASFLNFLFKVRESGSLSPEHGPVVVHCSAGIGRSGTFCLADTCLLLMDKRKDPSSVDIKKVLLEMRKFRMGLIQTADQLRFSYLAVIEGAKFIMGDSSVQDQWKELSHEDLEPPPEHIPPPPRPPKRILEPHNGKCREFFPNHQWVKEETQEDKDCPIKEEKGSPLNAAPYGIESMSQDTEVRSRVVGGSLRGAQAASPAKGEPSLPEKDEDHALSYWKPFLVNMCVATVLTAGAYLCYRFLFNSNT

[2] = target: T2, Tyrosine-protein phosphatase non-receptor type 1 (Homo sapiens) (UniProt P18031); assay: as §1
T2 sequence (whole entry): T1 sequence (P18031 whole entry)

Staphylococcus aureus = assay: Antibacterial activity against Staphylococcus aureus assessed as reduction in bacterial growth incubated for 16 hrs by broth microdilution method; type: functional
[3] = test system: Staphylococcus epidermidis; assay: Antibacterial activity against Staphylococcus epidermidis 42R assessed as reduction in bacterial growth incubated for 16 hrs by broth microdilution method; type: functional
Acinetobacter baumannii = assay: Antibacterial activity against pandrug-resistant Acinetobacter baumannii A564 assessed as bacterial growth inhibition at 50 ug/ml incubated for 16 hrs by broth microdilution method relative to control; type: functional; conditions: read-out: GI

Structure (SMILES) | IC50 [1] [µM] | inhibition [2] | MIC (Staphylococcus aureus) [µg/mL] | MIC [3] [µg/mL] | inhibition of growth at 50 µg/mL (Acinetobacter baumannii) [%]
CC[C@H](C)C[C@H](C)[C@@H](O)[C@@H](C)/C=C(\C)[C@@H](O)[C@@H](C)/C=C(\C)[C@@H](O)[C@@H](C)/C=C(\C)C=O | 27 | Dose-Dependent Effect |  |  | 
CCCCCCCC(=O)c1c(O)cc(O)cc1CC(=O)OCC [CYTOSPORONE B] |  |  | 18 (≈ 55.8 µM) | 21 (≈ 65.1 µM) | 51
